Where two headings read alike, the source gives them in different places.
Tests used:
Myzus persicae [1] = experiment: Myzus persicae oral test; type: in vivo; conditions: application rate 20 ppm, oral uptake through parafilm, after 5 days; for pest or weed control at 20 ppm: Myzus persicae, 120 h, read-out: efficacy
Procedure: Myzus persicae—Oral Test Solvent: 100 parts by weight of acetone
To produce an appropriate active ingredient formulation, 1 part by weight of active ingredient is dissolved with the stated parts by weight of solvent and made up with water until the desired concentration is attained.
50 μl of the active ingredient formulation are transferred into microtitre plates and made up to a final volume of 200 μl with 150 μl of IPL41 insect medium (33%+15% sugar). Subsequently, the plates are sealed with parafilm, which a mixed population of green peach aphids (Myzus persicae) within a second microtitre plate is able to puncture and imbibe the solution through it.
After 5 days, the efficacy in % is determined. 100% means that all the aphids have been killed; 0% means that no aphids have been killed.

[2] = log P by HPLC on reversed-phase column (EEC directive 79/831 Annex V.A8); type: physicochemical; conditions: for log p: HPLC on reversed-phase column (footnote a); for log p a): HPLC on reversed-phase column
Method in brief: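 Reversed-phase (C18) HPLC at 43° C, following EEC directive 79/831 Annex V.A8.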

Myzus persicae [3] = experiment: Myzus persicae spray test (Chinese cabbage leaf discs); type: in vivo; conditions: application rate 500 g/ha, after 6 days
Procedure: Myzus persicae—Spray Test Solvent: 78 parts by weight of acetone • • 1.5 parts by weight of dimethylformamide Emulsifier: alkylaryl polyglycol ether
To produce a suitable active ingredient formulation, 1 part by weight of active ingredient is dissolved with the stated parts by weight of solvent and made up with water containing an emulsifier concentration of 1000 ppm until the desired concentration is attained. To produce further test concentrations, the formulation is diluted with emulsifier-containing water.
Discs of Chinese cabbage leaves (Brassica pekinensis) infested by all stages of the green peach aphid (Myzus persicae) are sprayed with an active ingredient formulation of the desired concentration.
After 6 days, the efficacy in % is determined. 100% means that all the aphids have been killed; 0% means that no aphids have been killed.

| log p [2] | log p a) [2] | SMILES | efficacy (Myzus persicae [1]) [%] | efficacy (Myzus persicae [3]) [%] | further results |
| --- | --- | --- | --- | --- | --- |
| 2.09 | – | O=C(Cn1cc(Cl)cn1)c1c([O-])n(Cc2cnc(Cl)s2)c2cccc[n+]12 [Example I-1-010] | 100 | 90 | – |
| 1.68 | – | N#Cc1cnn(CC(=O)c2c([O-])n(Cc3cnc(Cl)s3)c3cccc[n+]23)c1 [Example I-1-015] | 100 | 90 | – |
| – | – | CC(C)OCC(=O)c1c([O-])n(Cc2cnc(Cl)s2)c2cccc[n+]12 [Example I-1-026, 1-[(2-chloro-1,3-thiazol-5-yl)methyl]-3-(isopropoxyacetyl)-1H-imidazo[1,2-a]pyridin-4-ium-2-olate] | – | 100 | pest or weed control at 20 ppm (Myzus persicae [1]): 100%; chromatographic logP [2]: 1.73; chromatographic logP ([2]; pH 2.7): 1.8 |
| – | – | CC(=O)c1c([O-])n(Cc2cnc(Cl)s2)c2cccc[n+]12 [Example I-1-043, 3-Acetyl-1-[(2-chloro-1,3-thiazol-5-yl)methyl]-1H-imidazo[1,2-a]pyridin-4-ium-2-olate] | – | 100 | pest or weed control at 20 ppm (Myzus persicae [1]): 100%; chromatographic logP [2]: 1.29; chromatographic logP ([2]; pH 2.7): 1.29 |
| 1.21 | – | CC(=O)Nc1ccn(CC(=O)c2c([O-])n(Cc3cnc(Cl)s3)c3cccc[n+]23)n1 [Example I-1-056] | 90 | 90 | – |
| 1.08 | – | CCCOCC(=O)c1c([O-])n(Cc2cncnc2)c2cccc[n+]12 [Example I-1-061] | 100 | 100 | – |
| 1.41 | – | O=C(Cn1nccn1)c1c([O-])n(Cc2cnc(Cl)s2)c2cccc[n+]12 [Example I-1-068] | 100 | 100 | – |
| 0.59 | – | CCOCC(=O)c1c([O-])n(Cc2cncnc2)c2cccc[n+]12 [Example I-1-072] | 100 | 100 | – |
| 1.18 | – | CC(=O)N(C)CC(=O)c1c([O-])n(Cc2cnc(Cl)s2)c2cccc[n+]12 [Example I-1-076] | 100 | 100 | – |
| – | – | COC(=O)c1c([O-])n(Cc2cnc(Cl)s2)c2cccc[n+]12 [Example I-1-085, 1-[(2-Chloro-1,3-thiazol-5-yl)methyl]-3-(methoxycarbonyl)-1H-imidazo[1,2-a]pyridin-4-ium-2-olate] | – | 90 | chromatographic logP [2]: 1.23; chromatographic logP ([2]; pH 2.7): 1.23 |
| 1.53 | – | Cn1nccc1OCC(=O)c1c([O-])n(Cc2cnc(Cl)s2)c2cccc[n+]12 [Example I-1-086] | 100 | 100 | – |
| 1.84 | – | Cc1ccn(CC(=O)c2c([O-])n(Cc3cnc(Cl)s3)c3c(C)ccc[n+]23)n1 [Example I-1-092] | 100 | 90 | – |
| – | 2.62 | COc1ccc(NC(=O)c2c([O-])n(Cc3cnc(Cl)s3)c3cccc[n+]23)cc1 [Example I-1-236] | 100 | – | – |
| – | 1.07 | CCNC(=O)c1c([O-])n(Cc2cnc(C)cn2)c2cccc[n+]12 [Example I-1-244] | 90 | – | – |
| – | 0.76 | CNC(=O)c1c([O-])n(Cc2cnc(C)cn2)c2cccc[n+]12 [Example I-1-245] | 90 | – | – |
| – | 1.69 | Cc1ccc[n+]2c(C(=O)Cn3cccn3)c([O-])n(Cc3cnc(Cl)s3)c12 [Example I-1-251] | 100 | – | – |
| – | 1.75 | Cc1cnc(Cn2c([O-])c(C(=O)Nc3c(F)cccc3F)[n+]3ccccc23)cn1 [Example I-1-269] | 100 | – | – |
| – | 1.51 | CCNC(=O)c1c([O-])n(Cc2cnc(Cl)cn2)c2cccc[n+]12 [Example I-1-278] | 100 | – | – |
| – | 2.95 | O=C(Nc1ccccc1F)c1c([O-])n(Cc2cnc(Cl)s2)c2cccc[n+]12 [Example I-1-286] | 100 | – | – |
| – | 1.86 | CC(c1cnc(Cl)s1)n1c([O-])c(C(=O)NC2(C#N)CC2)[n+]2ccccc12 (stereo not drawn) [Example I-1-289] | 100 | – | – |
| – | 2.77 | Cc1ccc[n+]2c(C(=O)COC3CCCCC3)c([O-])n(Cc3cnc(Cl)s3)c12 [Example I-1-294] | 90 | – | – |
| – | 2.45 | Cc1ccc[n+]2c(C(=O)COC3CCCC3)c([O-])n(Cc3cnc(Cl)s3)c12 [Example I-1-302] | 100 | – | – |
| – | 1.3 | C#Cc1cccnc1NC(=O)c1c([O-])n(Cc2cnc(Cl)s2)c2cccc[n+]12 [Example I-1-303] | – | 90 | – |
| – | 3.23 | O=C(Nc1cc(F)ccc1F)c1c([O-])n(Cc2cnc(Cl)s2)c2cccc[n+]12 [Example I-1-306] | 100 | – | – |
| – | 2.2 | N#Cc1cccc(F)c1NC(=O)c1c([O-])n(Cc2cnc(Cl)s2)c2cccc[n+]12 [Example I-1-307] | – | 90 | – |
| – | – | COC(=O)c1c([O-])n(Cc2ccc(Cl)nc2)c2nccc[n+]12 [Example I-4-001, 1-[(6-Chloropyridin-3-yl)methyl]-3-(methoxycarbonyl)-1H-imidazo[1,2-a]pyrimidin-4-ium-2-olate] | – | – | pest or weed control at 20 ppm (Myzus persicae [1]): 100%; chromatographic logP [2]: 1.15; chromatographic logP ([2]; pH 2.7): 1.15 |
| – | – | O=C(CCl)c1c([O-])n(Cc2ccc(Cl)nc2)c2scc[n+]12 [Example I-5-001, 5-(Chloroacetyl)-7-[(6-chloropyridin-3-yl)methyl]-7H-imidazo[2,1-b][1,3]thiazol-4-ium-6-olate] | – | – | pest or weed control at 20 ppm (Myzus persicae [1]): 100%; chromatographic logP [2]: 1.33; chromatographic logP ([2]; pH 2.7): 1.33 |
| – | – | O=C(CCl)c1c([O-])n(Cc2cnc(Cl)s2)c2scc[n+]12 [Example I-5-002] | 100 | – | log p^a) ([2]; Table 3; HPLC reversed-phase C18, 43° C.; footnote a) acidic range pH 2.7): 1.46 |

| SMILES | log p [2] | log p a) [2] | efficacy (Myzus persicae [1]) [%] | efficacy (Myzus persicae [3]) [%] | further results |
| --- | --- | --- | --- | --- | --- |
| CSCC(=O)c1c([O-])n(Cc2ccc(Cl)nc2)c2cccc[n+]12 [Example I-1-005] | 1.62 | – | 100 | 90 | – |
| C[S+]([O-])CC(=O)c1c([O-])n(Cc2ccc(Cl)nc2)c2cccc[n+]12 (stereo not drawn) [Example I-1-022] | 0.91 | – | 100 | 100 | – |
| COCC(=O)c1c([O-])n(Cc2cncnc2)c2cccc[n+]12 [Example I-1-023] | 0.4 | – | 100 | 100 | – |
| CCC(=O)N(CC)CC(=O)c1c([O-])n(Cc2ccc(Cl)nc2)c2cccc[n+]12 [Example I-1-070] | 1.64 | – | 100 | 100 | – |
| Cc1cccc2n(Cc3cnc(Cl)s3)c([O-])c(C(=O)CCl)[n+]12 [Example I-1-080] | 1.81 | – | – | 100 | – |
| Cc1ccc[n+]2c(C(=O)CCl)c([O-])n(Cc3cnc(Cl)s3)c12 [Example I-1-081] | 1.98 | – | 100 | 100 | – |
| COC(=O)c1c([O-])n(Cc2ccc(Cl)nc2)c2cccc[n+]12 [Example I-1-101] | 1.18 | – | 100 | 90 | – |
| COc1ccc(NC(=O)c2c([O-])n(C(C)c3ccc(Cl)nc3)c3cccc[n+]23)cc1 (stereo not drawn) [Example I-1-237] | – | 2.66 | 90 | – | – |
| CC(c1ccc(Cl)nc1)n1c([O-])c(C(=O)NCC(F)(F)F)[n+]2ccccc12 (stereo not drawn) [Example I-1-241] | – | 2.2 | 100 | – | – |
| CCCNC(=O)c1c([O-])n(C(C)c2ccc(Cl)nc2)c2cccc[n+]12 (stereo not drawn) [Example I-1-249] | – | 2.02 | 100 | – | – |
| CC(c1ccc(Cl)nc1)n1c([O-])c(C(=O)NCC2CC2)[n+]2ccccc12 (stereo not drawn) [Example I-1-250] | – | 2.12 | 100 | – | – |
| Cc1ccc[n+]2c(C(=O)Nc3ncccn3)c([O-])n(Cc3ccc(Cl)nc3)c12 [Example I-1-265] | – | 1.51 | 90 | – | – |
| CC(c1ccc(Cl)nc1)n1c([O-])c(C(=O)NC2(C#N)CC2)[n+]2ccccc12 (stereo not drawn) [Example I-1-271] | – | 1.69 | 100 | – | – |
| CC(c1ccc(Cl)nc1)n1c([O-])c(C(=O)Nc2c(F)cccc2F)[n+]2ccccc12 (stereo not drawn) [Example I-1-272] | – | 2.46 | 100 | – | – |
| COc1cccc(NC(=O)c2c([O-])n(Cc3ccc(Cl)nc3)c3cccc[n+]23)c1 [Example I-1-299] | – | 2.55 | 100 | – | – |
| O=C(NCC(F)(F)F)c1c([O-])n(Cc2ccc(Cl)nc2)c2cccc[n+]12 [Example I-1-312] | – | 1.98 | 100 | – | – |
| O=C(Nc1ncccc1F)c1c([O-])n(Cc2ccc(Cl)nc2)c2cccc[n+]12 [Example I-1-317] | – | 1.49 | 100 | – | – |
| COc1ccccc1NC(=O)c1c([O-])n(Cc2ccc(Cl)nc2)c2cccc[n+]12 [Example I-1-326] | – | 2.55 | 100 | – | – |

Reference: patent US20180282323A1, “Mesoionic imidazole derivatives as insecticides” (BAYER CROPSCIENCE AKTIENGESELLSCHAFT, priority 2015, published 2018)
